Measurements as given in patent US8425885B2, “Substituted 3-(phenoxymethyl) benzyl amines and personal care compositions” (Conopco, Inc., priority 2009, dated 2013).

System: Melanoderm tissue equivalent model MEL-300 (MatTek) containing melanocytes obtained from dark skin individuals
Test: Melanoderm tissue equivalent melanin content (inhibition of melanogenesis)
Format: cell-based
Details: Melanocyte, 336 h, total melanin content vs DMSO vehicle, 5 μM in maintenance medium, 14 days
Procedure: Melanoderm tissue equivalent model MEL-300 (MatTek: Ashland, Mass.) containing melanocytes obtained from dark skin individuals were cultured as per supplier instructions. Components were added to the maintenance medium phase (no topical treatments) at a final concentration of 5 μM for 14 days at which time the experiment was terminated and the tissues assessed for melanin content. Medium and treatments were changed three times per week. DMSO was utilized as the vehicle control and all treatments were performed at least in duplicate.
For quantification of total melanin, each Melanoderm was placed into an individual Eppendorf tube (2 mL) into which 250 μL of Solvable™ tissue solubilizer (Packard Bioscience Co., Cat#6NE9100) was added. Each tube was vortexed and incubated at 60° C. for 18 hours. Each sample was then centrifuged (5-minutes at 13,000 RPMs) to remove any particulates. 100 or 200 μL of supernatant were transferred to a 96 well microtiter plate and the absorbance read at 490 nm. Total melanin content was calculated from a standard curve using synthetic melanin (Sigma Cat# M8631). Data was analyzed for significance using the t-test in Microsoft Excel to generate p-values (p-values less than 0.01 represent 99% confidence, p values of 0.05 represent 95% confidence both of which are statistically significant).

Structure (SMILES)	inhibition at 5 µM [%]
CCN(CC)Cc1cccc(COc2ccccc2C(C)C)c1 [5g, N-(3-((2-isopropylphenoxy)methyl)benzyl)-N-ethylethanamine]	29.9
COc1ccccc1OCc1cccc(CNC(C)C)c1 [5e, N-(3-((2-methoxyphenoxy)methyl)benzyl)propan-2-amine]	14.7
NCc1cccc(COc2cccc3ccccc23)c1 [5s, (3-((naphthalen-1-yloxy)methyl)phenyl)methanamine]	4
CCN(CC)Cc1cccc(COc2cccc3ccccc23)c1 [5h, N-(3-((naphthalen-1-yloxy)methyl)benzyl)-N-ethylethanamine]	33.5
CNCc1cccc(COc2cccc3ccccc23)c1 [5t, N-methyl(3-((naphthalen-1-yloxy)methyl)phenyl)methanamine]	27.1
CCN(CC)Cc1cccc(COc2ccccc2)c1 [5a, N-(3-(phenoxymethyl)benzyl)-N-ethylethanamine]	14.4
CCNCc1cccc(COc2cccc3ccccc23)c1 [5u, N-((3-((naphthalen-1-yloxy)methyl)phenyl)methyl)ethanamine]	42.5
CCc1ccccc1OCc1cccc(CN(C)C)c1 [5m, (3-((2-ethylphenoxy)methyl)phenyl)-N,N-dimethylmethanamine]	31.6
CC(C)NCc1cccc(COc2cccc3ccccc23)c1 [5j, N-(3-((naphthalen-1-yloxy)methyl)benzyl)propan-2-amine]	26.5
CCc1ccccc1OCc1cccc(CNC)c1 [5q, (3-((2-ethylphenoxy)methyl)phenyl)-N-methylmethanamine]	42.3
CCNCc1cccc(COc2ccccc2CC)c1 [5r, N-(3-((2-ethylphenoxy)methyl)benzyl)ethanamine]	33.9
CCN(CC)Cc1cccc(COc2ccccc2C)c1 [5b, N-(3-((o-tolyloxy)methyl)benzyl)-N-ethylethanamine]	27.1
CCc1ccc(OCc2cccc(CN(C)C)c2)cc1 [5k]	-0.6
CN(C)Cc1cccc(COc2cccc3ccccc23)c1 [5i, N,N-dimethyl(3-((naphthalen-1-yloxy)methyl)phenyl)methanamine]	25.3
CCN(C)Cc1cccc(COc2ccccc2OC)c1 [5f, N-(3-((2-methoxyphenoxy)methyl)benzyl)-N-methylethanamine]	20.8
CCN(CC)Cc1cccc(COc2ccccc2OC)c1 [5d, N-(3-((2-methoxyphenoxy)methyl)benzyl)-N-ethylethanamine]	9.3
CCc1ccccc1OCc1cccc(CN(CC)CC)c1 [5c, N-(3-((2-ethylphenoxy)methyl)benzyl)-N-ethylethanamine]	30.7
